We go through two molecules from patent US6756342B1, “Substituted thienocycloalk(en) ylamino -1,3,5-triazine” (priority 1999, dated 2004).

In general, chromatographic logP refers to a lipophilicity value derived from retention on a column. Higher therefore signals higher lipophilicity.

Data set [1] has as its system weeds. Description: Pre-emergence test, overall statement. The data set is classed as in vivo. The protocol: (§1) Solvent: 5 parts by weight of acetone
(§2) Emulsifier: 1 part by weight of alkylaryl polyglycol ether
(§3) To produce a suitable preparation of active compound, 1 part by weight of active compound is mixed with the stated amount of solvent, the stated amount of emulsifier is added and the concentrate is diluted with water to the desired concentration.
(§4) Seeds of the test plants are sown in normal soil. After about 24 hours, the soil is sprayed with the preparation of active compound such that the particular amount of active compound desired is applied per unit area. The concentration of the spray liquor is chosen so that the particular amount of active compound desired is applied in 1000 litre of water per hectare.
(§5) After three weeks, the degree of damage to the plants is rated in % damage in comparison to the development of the untreated control.
(§6) 0%=no effect (like untreated control)

The subject of data set [2] is weeds. As to the kind of experiment: Post-emergence test, overall statement. The data set is classed as in vivo. How it is done: as §1, §2, §3
(§7) Test plants which have a height of 5-15 cm are sprayed with the preparation of active compound such that the particular amounts of active compound desired are applied per unit area. The concentration of the spray liquor is chosen so that the particular amounts of active compound desired are applied in 1000 l of water/ha.
as §5, §6

Data set [3] deals with Setaria. As to the kind of experiment: Post-emergence test/greenhouse. Type of data set: in vivo. The following applies: 500 g of ai./ha, rated after three weeks vs untreated control. How it is done: as §1, §2, §3, §7, §5, §6
Data set [4] concerns Sinapis. Description: Post-emergence test/greenhouse. The data set is classed as in vivo. The following applies: 500 g of ai./ha, rated after three weeks vs untreated control. The protocol: as §1, §2, §3, §7, §5, §6
Data set [5] deals with Xanthium. Description: Post-emergence test/greenhouse. Type of data set: in vivo. The following applies: 500 g of ai./ha, rated after three weeks vs untreated control. How it is done:
as §1, §2, §3, §7, §5, §6

The subject of data set [6] is Amaranthus. Description: Post-emergence test/greenhouse. The data set is classed as in vivo. The following applies: 500 g of ai./ha, rated after three weeks vs untreated control. How it is done:
as §1, §2, §3, §7, §5, §6

For data set [7], the system named is Alopecurus. As to the kind of experiment: Post-emergence test/greenhouse. The following applies: 500 g of ai./ha, rated after three weeks vs untreated control. Type of data set: in vivo. The protocol:
as §1, §2, §3, §7, §5, §6

A short description of data set [8]: logP determination by reversed-phase HPLC (EEC Directive 79/831 Annex V.A8). The data set is classed as physicochemical. The following applies: reversed-phase C18 HPLC column; a) acidic range: 0.1% aqueous phosphoric acid/acetonitrile gradient, C18, 43° C. How it is done: The logP values given in Example 1 and in Table 1 were determined in accordance with EEC Directive 79/831 Annex V.A^8 by HPLC (High Performance Liquid Chromatography) using a reversed-phase column (C 18). Temperature: 43° C.
(a) Mobile phases for the determination in the acidic range: 0.1% aqueous phosphoric acid, acetonitrile; linear gradient from 10% acetonitrile to 90% acetonitrile—the corresponding data are labelled in Table 1 with ^a).
(b) Mobile phases for the determination in the neutral range: 0.01 molar aqueous phosphate buffer solution, acetonitrile; linear gradient from 10% acetonitrile to 90% acetonitrile—corresponding data are labelled in Table 1 with ^b).
Calibration was carried out using unbranched alkan-2-ones (with from 3 to 16 carbon atoms) whose logP values are known (determination of the logP values by the retention times using linear interpolation between two successive alkanones).

In data set [9] the test system is Abutilon. Description: Pre-emergence test/greenhouse. Type of data set: in vivo. The following applies: 500 g of ai./ha, rated after three weeks vs untreated control. How it is done: as §1, §2, §3, §4, §5, §6
Data set [10] has as its system Galium. Description: Pre-emergence test/greenhouse. Type of data set: in vivo. The following applies: 500 g of ai./ha, rated after three weeks vs untreated control. The protocol:
as §1, §2, §3, §4, §5, §6

Data set [11] relates to Setaria. Description: Pre-emergence test/greenhouse. The data set is classed as in vivo. The following applies: 500 g of ai./ha, rated after three weeks vs untreated control. How it is done: as §1, §2, §3, §4, §5, §6
For data set [12], the system named is Amaranthus. Description: Pre-emergence test/greenhouse. The following applies: 500 g of ai./ha, rated after three weeks vs untreated control. The data set is classed as in vivo. The protocol: as §1, §2, §3, §4, §5, §6
Data set [13] concerns Alopecurus. Description: Pre-emergence test/greenhouse. Type of data set: in vivo. The following applies: 500 g of ai./ha, rated after three weeks vs untreated control. How it is done:
as §1, §2, §3, §4, §5, §6

SMILES strings stand for the structures. Counter-ions that a name gives are not always drawn.

Turning to `CC(F)c1nc(N)nc(NC2CCCc3sccc32)n1` (centres unmarked) [Example 1, 2-amino-4-(1-fluoro-ethyl)-6-(4,5,6,7-tetra-hydrobenzo[b]thiophen-4-yl-amino)-1,3,5-triazine], the activity against weeds result in data set [1] and in data set [2] was “strong activity” throughout. The “% damage Setaria” value in data set [3] and in data set [11] was 100% throughout. The “% damage Sinapis” value in data set [4] was determined as 100%. In [5], the “% damage Xanthium” value is 100%. For the same molecule, the “% damage Amaranthus” value in data set [6] and in [12] was 100% in each case. Besides, the “% damage Alopecurus” value in data set [7] was 95%; in data set [13], 100%. The chromatographic logP in [8] worked out at 4.26. In addition, in data set [9], the “% damage Abutilon” value stood at 95%. Moreover, the “% damage Galium” value in [10] is 90%.

In turn, `[H]/N=C(/N)N/C(=N/[H])NC1CCCc2sc(C)cc21` (centres unmarked) [Example II-1, 2-methyl-4,5,6,7-tetrahydrobenzo[b]thiophen-4-yl-biguanide hydrochloride] registered a chromatographic logP in [8] of 1.12.
